Experimental findings from ChEMBL document CHEMBL1139072, “A molecular modeling analysis of novel non-hydroxamate inhibitors of TACE” (Bioorg Med Chem Lett, 2007) are described below.

As a reminder, the pKa is the negative logarithm of the acid dissociation constant. Read a high pKa as a weaker acid or stronger base. As a reminder, the IC50 is the concentration that inhibits the measured activity by half. Lower therefore signals inhibition by little substance.

Data set [1] in a line: Dissociation constant, pKa in water. Type of data set: physicochemical.
Data set [2] concerns the target Disintegrin and metalloproteinase domain-containing protein 17 (Sus scrofa, UniProt O77636). Description: Inhibition of porcine TACE.

Disintegrin and metalloproteinase domain-containing protein 17, sequence (O77636 whole entry, the tested form may be a part): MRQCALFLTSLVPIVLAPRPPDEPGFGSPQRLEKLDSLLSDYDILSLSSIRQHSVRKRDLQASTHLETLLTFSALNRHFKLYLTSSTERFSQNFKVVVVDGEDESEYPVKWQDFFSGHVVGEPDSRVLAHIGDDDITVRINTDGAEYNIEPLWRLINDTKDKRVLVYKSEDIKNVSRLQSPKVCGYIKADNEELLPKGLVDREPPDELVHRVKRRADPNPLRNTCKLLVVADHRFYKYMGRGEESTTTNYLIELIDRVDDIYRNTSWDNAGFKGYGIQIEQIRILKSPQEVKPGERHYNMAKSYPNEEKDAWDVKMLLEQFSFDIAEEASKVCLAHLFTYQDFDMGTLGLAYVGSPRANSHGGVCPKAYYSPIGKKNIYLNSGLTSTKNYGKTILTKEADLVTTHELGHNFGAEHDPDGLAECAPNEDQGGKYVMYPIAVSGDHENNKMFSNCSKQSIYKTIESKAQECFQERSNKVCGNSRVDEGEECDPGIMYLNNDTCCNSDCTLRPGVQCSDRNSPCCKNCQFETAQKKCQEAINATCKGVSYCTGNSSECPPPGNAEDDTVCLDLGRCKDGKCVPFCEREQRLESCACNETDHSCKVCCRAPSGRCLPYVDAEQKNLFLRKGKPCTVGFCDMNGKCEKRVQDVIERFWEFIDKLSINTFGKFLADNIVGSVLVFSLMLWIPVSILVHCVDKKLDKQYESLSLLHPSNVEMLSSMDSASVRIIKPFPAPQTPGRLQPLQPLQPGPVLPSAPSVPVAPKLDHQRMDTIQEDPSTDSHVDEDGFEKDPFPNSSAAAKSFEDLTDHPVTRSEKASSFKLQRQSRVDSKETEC

Take `Cc1cc(COc2ccc(C3(N4CCN(C)CC4)C(=O)NC(=O)NC3=O)cc2)c2ccccc2n1`: the pKa in data set [1] came out at 7.2. This compound returned an IC50 in data set [2] of 91 nM.

Take `Cc1cc(COc2ccc([C@@]3(C)CCN([C@@H](C)C(=O)NO)C3=O)cc2)c2ccccc2n1`: the pKa in data set [1] was determined as 9. For the same compound, the half-maximal inhibitory concentration (IC50) in data set [2] was < 1 nM.

Regarding `Cc1cc(COc2ccc(C(=O)N[C@H]3CNC[C@@]34NC(=O)NC4=O)cc2)c2ccccc2n1`, the 50% inhibitory concentration (IC50) in data set [2] was found to be 25 nM.

Regarding `Cc1cc(COc2ccc(NC(=O)C[C@H]3CCC[C@]34NC(=O)NC4=O)cc2)c2ccccc2n1` [listing 1 of 2 here], 17 nM corresponded to half-maximal inhibition in data set [2] (IC50).

For `Cc1cc(COc2ccc(NC(=O)C[C@@H]3CCC[C@]34NC(=O)NC4=O)cc2)c2ccccc2n1`, the IC50 in data set [2] turned out to be 7400 nM.

Compound `Cc1cc(COc2ccc(NC(=O)C[C@@H]3CCC[C@@]34NC(=O)NC4=O)cc2)c2ccccc2n1` came in with a half-maximal inhibitory concentration (IC50) in data set [2] of 11 nM.

The compound `Cc1cc(COc2ccc(NC(=O)[C@H]3CCC[C@]34NC(=O)NC4=O)cc2)c2ccccc2n1` returned an IC50 in data set [2] of 230 nM.

`Cc1cc(COc2ccc(NC(=O)[C@@H]3CCC[C@]34NC(=O)NC4=O)cc2)c2ccccc2n1`: the IC50 in data set [2] worked out at 64 nM.

As for `Cc1cc(COc2ccc(C(=O)NCC3NC(=O)NC3=O)cc2)c2ccccc2n1` (centres undefined), the IC50 in data set [2] was determined as 98 nM.

In data set [2], `Cc1cc(COc2ccc(C(=O)N[C@@H]3CNC[C@]34NC(=O)NC4=O)cc2)c2ccccc2n1` yielded an IC50 of 900 nM.

For the compound `Cc1cc(COc2ccc(NC(=O)C[C@H]3CCC[C@]34NC(=O)NC4=O)cc2)c2ccccc2n1` [listing 2 of 2 here], the pKa in data set [1] worked out at 8.9. In data set [2], this compound gave an IC50 of 900 nM.
